Source: patent US20260337229A1 (Seattle Children's Hospital (d/b/a Seattle Children's …, priority 2022, published 2026)
Read-outs that look alike come from different tables or passages of the source.

Tests used:
[1] = 22-day long-term study in DIO rats (body weight, food and water intake); assay type: in vivo, male Sprague Dawley rats
From the text: For studies utilizing a DIO rat model, male Sprague Dawley rats (CD-IGS rats, strain 001; approximately 4 weeks of age; 51-75 g) purchased from Charles River Laboratories (Wilmington, MA, USA). These rats were fed a diet of 60% calories from fat (Formula: D12492; Research Diets, Inc., New Brunswick, NJ, USA; 5.21 kcal/g) for 4.5 to 6 months prior to the start of the study to induce obesity. For studies utilizing lean rats, male Sprague Dawley rats (CD-IGS rats, strain 001; 226-250 g) purchased from Charles River Laboratories (Wilmington, MA, USA). All rats had ad libitum access to food and water and were kept on a 12 h light/12 h dark cycle. Animals were individually housed in a temperature (22±1° C.) and humidity (57±4%) controlled room. All body weight measurements were taken just prior to the start of the dark cycle.
(§1) Male Sprague Dawley rats were fed 60% HF diet (D12492; Research Diets, Inc; New Brunswick, NJ; 5.21 kcal/g) for 16 weeks prior to the start of the study. Rats were then singly house in BioDAQ cages (Research Diets, Inc.; New Brunswick, NJ) and allowed to acclimate to their new environment for 10 days. Baseline measures of body weight, food intake and water intake were taken for one week to balance the groups and create feeding pairs. Each group (n=6 animals/group) averaged 714.47±81.6 g at baseline (Table 3).
(§2) Effects of ASK2131 were compared to a vehicle-treated group, OXT-treated group, as well as a pair-fed control group. Three days of baseline measures were taken before subcutaneous treatment administration began on day 4 of the study. Assessments were made to body weight, food intake and water intake. ASK2131 was administered at 50 nmol/kg throughout the entire study period. […] OXT-treated animals were started at 50 nmol/kg dose for two days, followed by 150 nmol/kg, then 300 nmol/kg, until ending at 600 nmol/kg for the remainder of the study.

[2] = Blood parameters after 22-day treatment of DIO rats; assay type: in vivo, male Sprague Dawley rats; details: 22 days sc, mean ± SEM, OXT n=4
From the text: as §1, §2
Cardiac puncture was used to collect blood for analysis 2 h post final injection. Commercially available enzyme-linked immunosorbent assays (ELISA) were used for quantitative assessment of leptin (cat. #EZRL-83K; MilliporeSigma, Burlington, MA, USA), insulin (cat. #EZRMI-13K; MilliporeSigma, Burlington, MA, USA), and adiponectin (cat. #EZRAPD-62K MilliporeSigma, Burlington, MA, USA). Serum samples were diluted 1:500 for the adiponectin ELISA using the sample diluent provided with the kit. All ELISAs were completed following the manufacturers recommendations. Levels of glucose, cholesterol (total, HDL, and calculated LDL), triglycerides, ALT, and AST were determined in the serum on a Modular P chemistry analyzer (Roche Diagnostics, Risch-Rotkreuz, Switzerland) by the University of Washington Nutrition and Obesity Research Center's Analytic Core (Seattle, WA, USA).

[3] = Dose escalation study in DIO rats; assay type: in vivo, male DIO Sprague Dawley rats; details: 1200 nmol/kg/d
From the text: Male DIO Sprague Dawley rats (n=4) were fed 60% HF diet (formula: D12492; Research Diets, Inc., New Brunswick, NJ, USA; 5.21 kcal/g) for 16 weeks prior to the start of the study. Rats were changed to being singly housed and allowed to acclimate for at least one week prior to the start of this study. Animals averaged 844.15 Z 99.95 g at baseline. Baseline measures of body weight, food intake, and water intake were taken for 6 days before drug administration began. Doses for the dose escalation study included 1, 2, 5, 10, 20, 50, and 100 nmol/kg. Body weight, food and water intake were assessed just prior to the start of the dark cycle. […] In certain embodiments, the greatest anorectic effect achieved with ASK1476 occurred at the 300 nmol/kg/d dose yielding a ~34% reduction in caloric intake while ASK2131 dosed at 2 nmol/kg/d yielded a ~55% reduction in caloric intake.

[4] = iv, rat; marked [2]; cited from earlier work
[5] = sc, mouse, marked [2], cited from earlier work
[6] = cited from earlier work
[7] = cited from earlier work; remark: listed apart in the source
[8] = test system: amygdala activation; details: 24 IU, but not lower (12 IU) or higher (48 IU) doses; in words; cited from earlier work
[9] = intranasal; in words; cited from earlier work
[10] = test system: OXT receptors; details: prolonged OXT treatment, in words, cited from earlier work
[11] = in words; cited from earlier work
[12] = peripheral administration; in words; cited from earlier work
[13] = ELISA, 2 h post final injection

With `CC[C@H](C)[C@@H]1NC(=O)[C@H](Cc2ccc(O)cc2)NC(=O)[C@@H](N)CSSC[C@@H](C(=O)N2CCC[C@H]2C(=O)N[C@@H](CC(C)C)C(=O)NCC(N)=O)NC(=O)[C@H](CC(N)=O)NC(=O)[C@H](CCC(N)=O)NC1=O` [OXT] the Post-treatment body weight ([1]; 22 days sc, ASK2131 50 nmol/kg, OXT titrated 50 to 600 nmol/kg, mean ± SEM) was 719 ± 20 g, the “% change in body weight” value ([1]; 22 days sc, ASK2131 50 nmol/kg, OXT titrated 50 to 600 nmol/kg, mean ± SEM, superscripts b: p<0.01, c: p<0.001 vs vehicle, d: p<0.001 vs OXT) was 0.1 ± 1 ^b % and the “reduction in food intake compared to vehicle-treated group” value ([1]; OXT titrated to 600 nmol/kg, 95% CI 0.2550 to 40.59, p=0.0464, in words) was “did not exhibit a significant reduction in food intake”. For the same compound, the “weight loss vs. vehicle” value ([1]; end of treatment, OXT titrated to 600 nmol/kg) was 5%, the “body weight, PMD vs vehicle” value ([1]; treatment day 9, after 8 days, OXT titrated, 95% CI −5.80 to −0.43%, p=0.014) was −3.12% and the “LDL, calculated” value ([2]; Calculated LDL = Cholesterol − (HDL + Triglycerides/5)) was 22 ± 2 mg/dL. For the same compound, the Adiponectin [2, 13] was 60.8 ± 3.9 ng/mL, the Insulin [2, 13] was 7.2 ± 2.1 ng/mL and the Leptin [2, 13] was 54.9 ± 7.9 ng/mL. The ALT ([2]; serum 2 h post final injection) was 40 ± 5 U/L, the AST ([2]; serum 2 h post final injection) was 128 ± 22 U/L and the Glucose ([2]; serum 2 h post final injection) was 203 ± 13 mg/dL. For the same compound, the HDL ([2]; serum 2 h post final injection) was 25 ± 2 mg/dL, the Triglycerides ([2]; serum 2 h post final injection) was 145 ± 7 mg/dL and the Cholesterol ([2]; serum 2 h post final injection, superscript b: p<0.01 vs vehicle) was 76 ± 3 mg/dL. The “reduction in caloric intake, maximum effect” value [3] was ~ 36%, the CLplasma [4] was 17.1 mL/min/kg and the T1/2 [4] was 7.2 min. The Vd [4] was 0.085 L/kg, the T1/2 [5] was 30 min and the Tmax [5] was 15 min. For the same compound, the “free Cmax” value [5] was 191 nM, the Cmax ([5]; total) was 216 nM and the “weight loss through energy expenditure” value ([6]; in words) was “elicits weight loss through increases in energy expenditure”. The “change in body weight” value ([6]; one month: two weeks at 0.2 mg/kg then two weeks at 0.4 mg/kg) was 3.3%, the “change in body weight” value ([7]; after a single dose of 1000 μg (1000 nmol)) was 0.01% and the “decrease in food intake” value ([7]; single injection of 1000 μg (1000 nmol)) was 12%. The amygdala activation [8] was “significant decrease in amygdala activation”, the “body weight in obese humans” value [9] was “shown to reduce body weight in obese humans” and the “dose response in human trials” value [9] was “U-shaped response”. For the same compound, the “desensitization of the OXT receptors” value ([10]; in vitro) was “shown to promote desensitization of the OXT receptors in vitro”, the OXTR binding [10] was “reductions of OXTR binding” and the blood-brain barrier passage [11] was “does not cross the blood-brain barrier”. For the same compound, the “food intake, energy expenditure, weight gain” value [12] was “reduces food intake, enhances energy expenditure, and prevents or reduces weight gain”.
